By IC50 is commonly meant the concentration at which inhibition is half-maximal. A low value points to greater potency in that assay. In general, Ki refers to the dissociation constant of the complex between target and ligand, obtained from inhibition or displacement. Read a high Ki as a looser hold on the target.

Here are results for five compounds from ChEMBL document CHEMBL3774356, “Definitive Metabolite Identification Coupled with Automated Ligand Identification System (ALIS) Technology: A Novel Approach to Uncover Structure-Activity Relationships and Guide Drug Design in a Factor IXa Inhibitor Program” (J Med Chem, 2016).

Data set [1] concerns Liver microsome. Kind of data set: Drug metabolism in beagle dog liver microsomes assessed as (R)-2,6-dichloro-N-(2-(3-fluorophenyl)-2-(2-methyl-1H-benzo[d]imidazol-5-yl)ethyl)-4-(3-(hydroxymethyl)-1H-1,2,4-triazol-1-yl)benzamide formation at 100 uM after 4 hrs by LC-MS/MS analysis. Type of data set: ADME, Canis lupus familiaris. In general terms: Liver microsomes are vesicles of endoplasmic reticulum, rich in cytochrome P450 enzymes.

The subject of a further data set is Rattus norvegicus. Kind of data set: Dose normalized AUC in Hans-Wistar rat at 2 mg/kg, po. Conditions: in vivo. Type of data set: ADME, organism-based.
The next data set deals with Coagulation factor IX (Homo sapiens, UniProt P00740). Kind of data set: Inhibition of human factor 9a using CH3SO2-DCHG-Gly-Arg-AFC.AcOH as substrate preinubated for 30 mins followed by substrate addition measured after 1 hr by fluorescence assay.
Data set [2] deals with Liver microsome. Nature of the data set: Drug metabolism in human liver microsomes assessed as (R)-2,6-dichloro-N-(2-(3-fluorophenyl)-2-(2-methyl-1H-benzo[d]imidazol-5-yl)ethyl)-4-(3-(hydroxymethyl)-1H-1,2,4-triazol-1-yl)benzamide formation after 4 hrs by LC-MS/MS analysis. Type of data set: ADME.
In data set [3] the test system is Liver microsome. Nature of the data set: Drug metabolism in beagle dog liver microsomes assessed as (R)-2,6-dichloro-N-(2-(3-fluorophenyl)-2-hydroxy-2-(2-methyl-1H-benzo[d]imidazol-5-yl)ethyl)-4-(3-methyl-1H-1,2,4-triazol-1-yl)benzamide formation at 100 uM after 4 hrs by LC-MS/MS analysis. It counts as ADME, Canis lupus familiaris.
For data set [4], the system named is Liver microsome. Kind of data set: Drug metabolism in human liver microsomes assessed as (R)-2,6-dichloro-N-(2-(3-fluorophenyl)-2-hydroxy-2-(2-methyl-1H-benzo[d]imidazol-5-yl)ethyl)-4-(3-methyl-1H-1,2,4-triazol-1-yl)benzamide formation after 4 hrs by LC-MS/MS analysis. It counts as ADME.
The test system of data set [5] is Liver microsome. Kind of data set: Drug metabolism in Sprague-Dawley rat liver microsomes assessed as (R)-2,6-dichloro-N-(2-(3-fluorophenyl)-2-hydroxy-2-(2-methyl-1H-benzo[d]imidazol-5-yl)ethyl)-4-(3-methyl-1H-1,2,4-triazol-1-yl)benzamide formation after 4 hrs by LC-MS/MS analysis. Type of data set: ADME.
Data set [6] concerns Liver microsome. Kind of data set: Drug metabolism in Sprague-Dawley rat liver microsomes assessed as (R)-2,6-dichloro-N-(2-(3-fluorophenyl)-2-(2-methyl-1H-benzo[d]imidazol-5-yl)ethyl)-4-(3-(hydroxymethyl)-1H-1,2,4-triazol-1-yl)benzamide formation after 4 hrs by LC-MS/MS analysis. Type of data set: ADME.
A short description of data set [7]: Retention time of the compound by size exclusion chromatography. Type of data set: physicochemical.
Data set [8] relates to Liver microsome. Nature of the data set: Drug level in human liver microsomes treated with (R)-2,6-Dichloro-N-(2-(3-fluorophenyl)-2-(2-methyl-1Hbenzo[d]imidazol-5-yl)ethyl)-4-(3-methyl-1H-1,2,4-triazol-1-yl)-benzamide after 4 hrs by LC-MS/MS analysis. Type of data set: ADME.
The test system of data set [9] is Liver microsome. Nature of the data set: Drug level in Sprague-Dawley rat liver microsomes treated with (R)-2,6-Dichloro-N-(2-(3-fluorophenyl)-2-(2-methyl-1Hbenzo[d]imidazol-5-yl)ethyl)-4-(3-methyl-1H-1,2,4-triazol-1-yl)-benzamide after 4 hrs by LC-MS/MS analysis. It counts as ADME.
The test system of data set [10] is Liver microsome. Nature of the data set: Drug level in beagle dog liver microsomes treated with (R)-2,6-Dichloro-N-(2-(3-fluorophenyl)-2-(2-methyl-1Hbenzo[d]imidazol-5-yl)ethyl)-4-(3-methyl-1H-1,2,4-triazol-1-yl)-benzamide at 100 uM after 4 hrs by LC-MS/MS analysis. It counts as ADME, Canis lupus familiaris.

The structures appear in SMILES notation.

Sequence of Coagulation factor IX (P00740 47-191 limits assumed): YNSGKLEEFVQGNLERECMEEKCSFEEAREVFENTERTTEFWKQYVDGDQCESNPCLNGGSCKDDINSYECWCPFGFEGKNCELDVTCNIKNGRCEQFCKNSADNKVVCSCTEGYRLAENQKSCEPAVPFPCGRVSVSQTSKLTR
Sequence of Coagulation factor IX (P00740 227-461 limits assumed): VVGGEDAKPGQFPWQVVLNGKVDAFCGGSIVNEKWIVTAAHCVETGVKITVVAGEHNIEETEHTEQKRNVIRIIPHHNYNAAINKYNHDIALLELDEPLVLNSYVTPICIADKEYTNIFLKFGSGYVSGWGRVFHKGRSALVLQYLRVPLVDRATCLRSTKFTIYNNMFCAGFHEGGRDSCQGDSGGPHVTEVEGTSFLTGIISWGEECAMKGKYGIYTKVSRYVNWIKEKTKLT

Take `Cc1ncn(-c2cc(Cl)c(C(=O)NC[C@@H](c3cccc(F)c3)c3ccc4[nH]c(C)nc4c3)c(Cl)c2)n1`: the Drug metabolism result with Liver microsome [1], with Liver microsome [2], in the data set with Liver microsome [3], in the data set on Liver microsome [4], in the data set on Liver microsome [5] and with Liver microsome [6] was “metabolite_detected” in each case. The compound further came in with an AUC/dose with Rattus norvegicus of 0.097 µM·h/mg/kg. At Coagulation factor IX, this compound showed an IC50 of 9.99 nM.
In [7], `Cc1ncn(-c2cc(Cl)c(C(=O)NC[C@@H](c3ccc(O)c(F)c3)c3ccc4[nH]c(C)nc4c3)c(Cl)c2)n1` displayed a Retention_time of 3.59 min. The Drug metabolism result in the data set with Liver microsome [8] and in the data set with Liver microsome [9] was “metabolite_detected” each time. Moreover, at Coagulation factor IX, the IC50 was found to be 1.86 nM.
With `Cc1nc2cc([C@@H](CNC(=O)c3c(Cl)cc(-n4cnc(CO)n4)cc3Cl)c3cccc(F)c3)ccc2[nH]1`, in data set [7], the Retention_time is 3.84 min. The Drug metabolism entry with Liver microsome [8], in the data set with Liver microsome [9] and with Liver microsome [10] was “metabolite_detected” throughout. For the same compound, at Coagulation factor IX, half-maximal inhibition (IC50) required 11 nM.
In turn, `Cc1ncn(-c2cc(Cl)c(C(=O)NC[C@@H](c3cccc(F)c3)c3cc(F)c4[nH]c(C)nc4c3)c(Cl)c2)n1` returned a Ki at Coagulation factor IX of 10.6 nM.
On to `Cc1ncn(-c2cc(Cl)c(C(=O)NCC(O)(c3cccc(F)c3)c3ccc4[nH]c(C)nc4c3)c(Cl)c2)n1` (single isomer, unassigned), for which the Retention_time in data set [7] stood at 4.24 min. Further, the Drug metabolism entry with Liver microsome [8], with Liver microsome [9] and in the data set on Liver microsome [10] was “metabolite_detected” each time. The IC50 against Coagulation factor IX was determined as 63.9 nM.
